Where two headings read alike, the source gives them in different places. Where a SMILES comes first, the peptide text is derived from it.
What was measured:
TPO receptor = target: T1, TPO receptor (Homo sapiens, UniProt P40238); experiment: Microphysiometer assay: rate of acidification of extracellular medium on TPO receptor stimulation; assay type: cell-based
T1 sequence (P40238 26-635): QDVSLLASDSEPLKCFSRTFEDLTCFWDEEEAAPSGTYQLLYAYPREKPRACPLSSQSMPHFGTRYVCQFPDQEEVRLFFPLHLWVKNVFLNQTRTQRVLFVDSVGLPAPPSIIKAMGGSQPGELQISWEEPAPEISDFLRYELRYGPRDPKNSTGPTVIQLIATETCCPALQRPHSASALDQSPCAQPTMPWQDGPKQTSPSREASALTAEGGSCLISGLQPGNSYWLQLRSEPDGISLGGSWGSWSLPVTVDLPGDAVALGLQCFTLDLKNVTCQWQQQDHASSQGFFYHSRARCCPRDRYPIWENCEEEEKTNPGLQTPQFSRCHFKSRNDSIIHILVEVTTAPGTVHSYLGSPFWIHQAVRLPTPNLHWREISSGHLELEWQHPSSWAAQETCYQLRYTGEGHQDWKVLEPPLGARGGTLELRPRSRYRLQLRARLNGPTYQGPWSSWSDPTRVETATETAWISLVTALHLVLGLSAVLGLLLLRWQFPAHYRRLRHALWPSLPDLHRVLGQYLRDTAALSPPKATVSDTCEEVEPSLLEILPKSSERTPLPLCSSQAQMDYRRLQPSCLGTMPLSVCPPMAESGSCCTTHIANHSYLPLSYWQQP
Procedure: In this example cyclized compounds were subjected to three assays. […] Finally, a microphysiometer (Molecular Devices Corp.) assay was performed. […] The ranges for EC50 are symbolically indicated as for IC50 described above.

TPO-R = target: T2, TPO-R (Homo sapiens, UniProt P40238); experiment: Competition binding assay (equilibrium binding ELISA, MBP-TPO156 tracer) on immobilized TPO-R; conditions: read-out: IC50
T2 construct: made in house
T2 sequence (P40238 26-491 limits assumed): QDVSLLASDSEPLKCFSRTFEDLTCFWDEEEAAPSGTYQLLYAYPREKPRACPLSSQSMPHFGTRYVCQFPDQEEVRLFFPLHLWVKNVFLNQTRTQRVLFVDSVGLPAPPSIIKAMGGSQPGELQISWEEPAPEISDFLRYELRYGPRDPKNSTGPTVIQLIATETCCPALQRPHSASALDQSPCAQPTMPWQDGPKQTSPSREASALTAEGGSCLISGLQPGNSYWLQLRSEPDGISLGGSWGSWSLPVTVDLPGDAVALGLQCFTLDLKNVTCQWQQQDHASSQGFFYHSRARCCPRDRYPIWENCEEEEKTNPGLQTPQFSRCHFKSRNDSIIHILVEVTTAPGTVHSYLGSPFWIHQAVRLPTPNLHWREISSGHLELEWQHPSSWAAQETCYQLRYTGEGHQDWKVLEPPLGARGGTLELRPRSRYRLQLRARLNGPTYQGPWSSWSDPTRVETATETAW
Procedure: A variety of methods can be used to evaluate IC50 values. For example, an equilibrium binding ELISA assay, using either MBP-TPO or lacI-peptide tracer, was used to determine whether the peptides inhibit the binding of TPO to the extracellular domain of the TPO receptor. Typically, the IC50 value were determined using the free peptide. The IC50 value can be determined using the free peptide, which optionally can be C-terminally amidated, or can be prepared as an ester or other carboxy amide.
Binding affinities of chemically synthesized peptides for TPO-R were measured in a competition binding assay. The wells of a microtiter plate were coated with 1 mg streptavidin, blocked with PBS/1% BSA, followed by 50 ng of biotinylated anti-receptor immobilizing antibody (Ab179). The wells were then treated with a 1:10 dilution of soluble TPO-R harvest. Various concentrations of peptide or peptide mimetic were mixed with a constant amount of a truncated form of TPO consisting of residues 1-156 fused to the C-terminus of maltose binding protein (MBP-TPO156). The peptide MBP-TPO156 mixtures were added to the TPO-R coated wells, incubated for 2 hours at 4° C. and then washed with PBS. The amount of MBP-TPO156 that was bound at equilibrium was measured by adding a rabbit anti-sera directed against MBP, followed by alkaline phosphatase conjugated goat anti-rabbit IgG. The amount of alkaline phosphatase in each well was then determined using standard methods.
The assay is conducted over a range of peptide concentrations and the results are graphed such that the y axis represents the amount of bound MBP-TPO156 and the x axis represents the concentration of peptide or peptide mimetic.

[1] = target: T3, human TPO-R (transfected Ba/F3 cells) (Homo sapiens, UniProt P40238); experiment: Thrombopoietin dependent cell proliferation assay (MTT), TPO-R transfected Ba/F3 cells; assay type: cell-based; conditions: Table 4, cyclized compounds; read-out: EC50 (nM) Proliferation
T3 construct: Murine IL-3 dependent Ba/F3 cells were transfected with full length human TPO-R; expressed in transfected cells; host or cells: murine Ba/F3 cells
T3 sequence (P40238 26-635): T1 sequence (P40238 26-635)
Procedure: Bioactivity of the peptides can be measured using a thrombopoietin dependent cell proliferation assay. Murine IL-3 dependent Ba/F3 cells were transfected with full length human TPO-R. In the absence of IL-3 (WEHI-3 conditioned media), these cells are dependent on TPO for proliferation.
The cells were grown in complete RPMI-10 media, containing 10% WEHI-3 conditioned media, then washed twice in PBS, resuspended in media which lacked WEHI-3 conditioned media, and added to wells containing dilutions of peptide or TPO at 2×10^4 cells/well. The cells were incubated for 48 hours at 37° C. in a humidified 5% CO2 atmosphere and metabolic activity was assayed by the reduction of MTT to formazan, with absorbance at 570 nm measured on an ELISA plate reader.

[2] = Table 4, cyclized compounds, microphysiometer, read-out: EC50 (nM) Microonys
[3] = Table 7, dimer compounds, read-out: EC50 (nM) Microonys.

SMILES	EC50 (TPO receptor; [2])	IC50 (TPO-R; Table 4, cyclized compounds)	EC50 [1]	EC50 (TPO receptor; [3])	IC50 (TPO-R; Table 7, dimer compounds)
CC[C@H](C)[C@@H]1NC(=O)[C@H](Cc2c[nH]c3ccccc23)NC(=O)[C@H](CCC(=O)O)NC(=O)[C@H](CCCNC(=N)N)NC(=O)[C@H](CC(C)C)NC(=O)[C@H]([C@@H](C)O)NC(=O)[C@@H]2CCCN2C(=O)CNC(=O)[C@H](CC(=O)O)NC(=O)[C@H](C)NC(=O)C[S+]([O-])C[C@@H](C(N)=O)NC(=O)[C@H](Cc2ccccc2)NC(=O)[C@H](CO)NC1=O (stereo partly shown) (HELM PEPTIDE1{A.D.G.P.T.L.R.E.W.I.S.F.[O=C([C@H](C[S+]([O-])CC(=O)[*:3])N[*:1])[*:2]].[am]}$PEPTIDE1,PEPTIDE1,1:R1-13:R3$$$V2.0)	< 200000 nM	≤ 200 µM	< 200000 nM		
CC[C@H](C)[C@@H]1NC(=O)[C@H](Cc2c[nH]c3ccccc23)NC(=O)[C@H](CCC(=O)O)NC(=O)[C@H](CCCNC(=N)N)NC(=O)[C@H](CC(C)C)NC(=O)[C@H]([C@@H](C)O)NC(=O)[C@@H]2CCCN2C(=O)CNC(=O)[C@H](CC(=O)O)NC(=O)[C@H](C)NC(=O)CSC(C)(C)[C@@H](C(N)=O)NC(=O)[C@H](Cc2ccccc2)NC(=O)[C@H](CO)NC1=O (HELM PEPTIDE1{[O=C(C[*:3])[*:2]].A.D.G.P.T.L.R.E.W.I.S.F.[Pen].[am]}$PEPTIDE1,PEPTIDE1,1:R3-14:R3$$$V2.0)	< 200000 nM	≤ 200 µM	< 200000 nM		
CC[C@H](C)[C@@H]1NC(=O)[C@H](Cc2c[nH]c3ccccc23)NC(=O)[C@H](CCC(=O)O)NC(=O)[C@H](CCCNC(=N)N)NC(=O)[C@H](CC(C)C)NC(=O)[C@H]([C@@H](C)O)NC(=O)[C@@H]2CCCN2C(=O)CNC(=O)[C@H](CC(=O)O)NC(=O)[C@H](C)NC(=O)[C@@H](N)CSSC[C@H](C(N)=O)NC(=O)[C@H](Cc2ccccc2)NC(=O)[C@H](CO)NC1=O (HELM PEPTIDE1{C.A.D.G.P.T.L.R.E.W.I.S.F.[dC].[am]}$PEPTIDE1,PEPTIDE1,1:R3-14:R3$$$V2.0)	< 200000 nM	≤ 0.5 µM	< 200000 nM		
CC(C)C[C@H](NC(=O)[C@H](Cc1c[nH]c2ccccc12)NC(=O)[C@H](CCC(N)=O)NC(=O)[C@H](CCCNC(=N)N)NC(=O)[C@H](CC(C)C)NC(=O)[C@@H](NC(=O)[C@@H]1CCCN1C(=O)CNC(=O)[C@H](CCC(=O)O)NC(=O)[C@@H](N)CCCCN)[C@@H](C)O)C(=O)N[C@@H](C)C(=O)N[C@@H](C)C(=O)N[C@@H](CCCNC(=N)N)C(=O)N[C@@H](C)C(=O)NCCCC[C@H](NC(=O)CCNC(=O)[C@H](C)NC(=O)[C@H](CCCNC(=N)N)NC(=O)[C@H](C)NC(=O)[C@H](C)NC(=O)[C@H](CC(C)C)NC(=O)[C@H](Cc1c[nH]c2ccccc12)NC(=O)[C@H](CCC(N)=O)NC(=O)[C@H](CCCNC(=N)N)NC(=O)[C@H](CC(C)C)NC(=O)[C@@H](NC(=O)[C@@H]1CCCN1C(=O)CNC(=O)[C@H](CCC(=O)O)NC(=O)[C@@H](N)CCCCN)[C@@H](C)O)C(N)=O				< 500 nM	≤ 0.5 µM
CC[C@H](C)[C@H](NC(=O)[C@@H](N)CSSC[C@H](N)C(=O)N[C@H](C(=O)N[C@@H](CCC(=O)O)C(=O)NCC(=O)N1CCC[C@H]1C(=O)N[C@H](C(=O)N[C@@H](CC(C)C)C(=O)N[C@@H](CCCNC(=N)N)C(=O)N[C@@H](CCC(N)=O)C(=O)N[C@@H](Cc1c[nH]c2ccccc12)C(=O)N[C@@H](CC(C)C)C(=O)N[C@@H](C)C(=O)N[C@@H](C)C(=O)N[C@@H](CCCNC(=N)N)C(=O)N[C@@H](C)C(N)=O)[C@@H](C)O)[C@@H](C)CC)C(=O)N[C@@H](CCC(=O)O)C(=O)NCC(=O)N1CCC[C@H]1C(=O)N[C@H](C(=O)N[C@@H](CC(C)C)C(=O)N[C@@H](CCCNC(=N)N)C(=O)N[C@@H](CCC(N)=O)C(=O)N[C@@H](Cc1c[nH]c2ccccc12)C(=O)N[C@@H](CC(C)C)C(=O)N[C@@H](C)C(=O)N[C@@H](C)C(=O)N[C@@H](CCCNC(=N)N)C(=O)N[C@@H](C)C(N)=O)[C@@H](C)O (HELM PEPTIDE1{C.I.E.G.P.T.L.R.Q.W.L.A.A.R.A.[am]}|PEPTIDE2{C.I.E.G.P.T.L.R.Q.W.L.A.A.R.A.[am]}$PEPTIDE1,PEPTIDE2,1:R3-1:R3$$$V2.0)				< 500 nM	≤ 0.5 µM

Reference: patent publication US8227422B2, “Peptides and compounds that bind to a receptor” (Glaxosmithkline LLC, priority 1996, dated 2012)
